pKi: −log10 of the molar value.
Key:
human 5-HT2A receptor = human 5-HT2A receptor (Homo sapiens, UniProt P28223); assay: Radioligand binding to cloned human 5-HT2A receptor expressed in HEK-293 EBNA cells ([3H]-ketanserin)
human D2 receptor = target: T1, human D2 receptor (Homo sapiens, UniProt P14416); assay: Radioligand binding to cloned human D2 receptor expressed in HEK-293 EBNA cells ([3H]-spiperone); conditions: HEK293 EBNA cell membranes, approximately 0.7 nM [3H]-spiperone, 1 h at RT
T1 construct: expressed in transfected cells; host or cells: HEK293 EBNA cells, transient transfection; membrane preparation
T1 sequence (P14416 whole entry): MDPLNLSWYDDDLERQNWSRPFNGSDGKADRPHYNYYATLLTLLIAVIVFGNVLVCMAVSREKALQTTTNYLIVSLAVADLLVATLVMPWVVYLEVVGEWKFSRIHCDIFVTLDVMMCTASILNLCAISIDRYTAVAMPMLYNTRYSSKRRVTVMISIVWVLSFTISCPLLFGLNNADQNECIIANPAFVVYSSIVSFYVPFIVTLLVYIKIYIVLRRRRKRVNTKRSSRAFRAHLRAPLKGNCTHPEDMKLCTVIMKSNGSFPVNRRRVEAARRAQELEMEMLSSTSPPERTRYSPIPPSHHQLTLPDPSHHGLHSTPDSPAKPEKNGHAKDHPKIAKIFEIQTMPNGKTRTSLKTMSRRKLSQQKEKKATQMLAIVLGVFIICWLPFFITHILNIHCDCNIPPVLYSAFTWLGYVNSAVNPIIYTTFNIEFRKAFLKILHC
Procedure: (§1) HEK293 EBNA cells were transiently transfected with expression plasmids encoding for the human D2 or D3 or for the human 5-HT2A receptor, respectively. The cells were harvested 48 h post-transfection, washed three times with cold PBS and stored at −80° C. prior to use. The pellet was suspended in cold 50 mM Tris-HCl buffer comprising 10 mM EDTA (pH 7.4) and was homogenized with a Polytron (Kinematica A G, Basel, Switzerland) for 20-30 sec at 12.000 rpm. After centrifugation at 48.000×g for 30 min at 4° C., the pellet was resuspended in cold 10 mM Tris-HCl buffer comprising 0.1 mM EDTA (pH 7.4), homogenized, and centrifuged as above. This pellet was further resuspended in a smaller volume of ice cold 10 mM Tris-HCl buffer comprising 0.1 mM EDTA (pH 7.4) and homogenized with a Polytron for 20-30 sec at 12.000 rpm. The protein content of this homogenate was determined with the Bio-Rad (Bradford) Protein Assay (Biorad Laboratories GmbH, München, Germany) according to the instructions of the manufacturer using gamma globulin as the standard. This homogenate was stored at −80° C. in aliquots and thawed immediately prior to use.
(§2) Aliquots of membrane preparations were thawed at RT, resupended in assay buffer (D2, D3: 50 mM Tris-HCl, 120 mM NaCl, 5 mM MgCl2, 1 mM EDTA, 5 mM KCl, 1.5 mM CaCl2, pH=7.4; 5-HT2A: 50 mM Tris-HCl, 10 mM MgCl2, 1 mM EGTA, pH=7.4), homogenized with a Polytron for 20-30 sec at 12.000 rpm and adjusted to a final concentration of approximately 7.5 μg protein/well (D2, D3) and 15 μg protein/well (5-HT2A), respectively.
(§3) The binding affinity (Ki) of the compounds was determined using radioligand binding. Membranes were incubated in a total volume of 200 μl with a fixed concentration of radioligand (final concentration approximately 0.7 nM [^3H]-spiperone for D2, 0.5 nM [^3H]-spiperone for D3, and 1.1 nM [^3H]-ketanserin for 5-HT2A) and ten concentrations of test compound in ranging between 10 μM-0.1 nM for 1 h at RT. At the end of the incubation, the reaction mixtures were filtered on to unifilter 96-well white microplates with bonded GF/C filters (Packard BioScience, Zürich, Switzerland; preincubated for 1 h in 0.1% polyethylenimine (PEI) in assay buffer) with a Filtermate 196 harvester (Packard BioScience) and washed 3 times with cold assay buffer. The nonspecific binding was determined with equally composed reaction mixtures in the presence of 10 μM unlabelled spiperone. Per well 45 μl of Microscint 40 (Perkin Elmer, Schwerzenbach, Switzerland) was added, plates for sealed, shaken for 20 min and counted for 3 min on a Topcount Microplate Scintillation Counter (Can berra Packard S A, Zürich, Switzerland) with quenching correction.
(§4) The CPM value for each duplicate of a concentration of competing compound was averaged (y1), then the % specific binding was calculated according to the equation (((y1−non-specific)/(total binding−non-specific))×100). Graphs were plotted with the % specific binding using XLfit, a curve fitting program that iteratively plots the data using Levenberg-Marquardt algorithm. The single site competition analysis equation used was y=A+((B−A)/(1+((x/C)D))), where y is the % specific binding, A is the minimum y, B is the maximum y, C is the IC50, x is the log 10 of the concentration of the competing compound and D is the slope of the curve (the Hill Coefficient). […] The affinity constant (Ki) was calculated using the Cheng-Prusoff equation Ki=(IC50/1+([L]/Kd), where [L] is the concentration of radioligand and Kd is the dissociation constant of the radioligand at the receptor as determined by the saturation isotherm.

human D3 receptor = human D3 receptor (Homo sapiens, UniProt P35462); assay: Radioligand binding to cloned human D3 receptor expressed in HEK-293 EBNA cells ([3H]-spiperone)
human D3 receptor, sequence (P35462 whole entry): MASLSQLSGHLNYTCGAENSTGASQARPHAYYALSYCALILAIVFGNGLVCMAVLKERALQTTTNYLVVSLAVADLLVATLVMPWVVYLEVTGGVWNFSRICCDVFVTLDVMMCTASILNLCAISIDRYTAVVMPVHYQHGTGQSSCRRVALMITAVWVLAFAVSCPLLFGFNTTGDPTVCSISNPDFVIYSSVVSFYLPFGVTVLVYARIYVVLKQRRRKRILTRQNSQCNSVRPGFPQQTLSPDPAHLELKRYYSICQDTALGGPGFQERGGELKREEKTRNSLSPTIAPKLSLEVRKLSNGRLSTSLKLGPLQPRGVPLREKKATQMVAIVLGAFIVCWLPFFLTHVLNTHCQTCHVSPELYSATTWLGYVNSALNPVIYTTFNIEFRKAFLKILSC
Procedure: as §1, §2, §3, §4

human 5-HT2A receptor, sequence (P28223 whole entry): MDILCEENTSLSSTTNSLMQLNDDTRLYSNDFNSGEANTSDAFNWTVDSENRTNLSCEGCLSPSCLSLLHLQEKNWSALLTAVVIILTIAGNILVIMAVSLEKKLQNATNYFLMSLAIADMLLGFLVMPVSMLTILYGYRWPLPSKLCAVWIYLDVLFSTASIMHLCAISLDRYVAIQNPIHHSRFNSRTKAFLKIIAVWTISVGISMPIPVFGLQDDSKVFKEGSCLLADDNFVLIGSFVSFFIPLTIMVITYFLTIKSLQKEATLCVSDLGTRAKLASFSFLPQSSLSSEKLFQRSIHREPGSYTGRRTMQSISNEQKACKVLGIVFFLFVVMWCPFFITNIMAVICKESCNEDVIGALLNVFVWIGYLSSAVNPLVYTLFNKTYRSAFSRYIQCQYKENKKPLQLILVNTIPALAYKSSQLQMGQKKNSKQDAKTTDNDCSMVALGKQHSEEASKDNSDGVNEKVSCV

| pKi (human 5-HT2A receptor) | melting point [°C] | pKi (human D2 receptor) | pKi (human D3 receptor) | Compound |
| --- | --- | --- | --- | --- |
| 7.53 | 225.5 | 6.30 | 7.95 | O=C(N[C@H]1CC[C@H](CCN2CCN(c3nccc4c3OCC4)CC2)CC1)c1ccc(-n2cccn2)cc1 [Example 65, trans-N-(4-{2-[4-(2,3-Dihydro-furo[2,3-c]pyridin-7-yl)-piperazin-1-yl]-ethyl}-cyclohexyl)-4-pyrazol-1-yl-benzamide] |
| 7.42 | 236.5 | 6.62 | 7.86 | O=C(N[C@H]1CC[C@H](CCN2CCN(c3nccc4c3OCC4)CC2)CC1)c1ccc(-n2cccc2)cc1 [Example 66, trans-N-(4-{2-[4-(2,3-Dihydro-furo[2,3-c]pyridin-7-yl)-piperazin-1-yl]-ethyl}-cyclohexyl)-4-pyrrol-1-yl-benzamide] |
| 7.03 | 243.5 | 5.30 | 7.33 | O=C(N[C@H]1CC[C@H](CCN2CCN(c3nccc4c3OCC4)CC2)CC1)c1ccc(Cl)cc1Cl [Example 67, trans-2,4-Dichloro-N-(4-{2-[4-(2,3-dihydro-furo[2,3-c]pyridin-7-yl)-piperazin-1-yl]-ethyl}-cyclohexyl)-benzamide] |
| 8.31 | 235.5 | 6.92 | 8.22 | CN1CCN(c2ccc(C(=O)N[C@H]3CC[C@H](CCN4CCN(c5nccc6c5OCC6)CC4)CC3)cc2)CC1 [Example 68, trans-N-(4-{2-[4-(2,3-Dihydro-furo[2,3-c]pyridin-7-yl)-piperazin-1-yl]-ethyl}-cyclohexyl)-4-(4-methyl-piperazin-1-yl)-benzamide] |
| 7.60 | 204 | 6.22 | 7.76 | Cc1ccc(C(=O)N[C@H]2CC[C@H](CCN3CCN(c4nccc5c4OCC5)CC3)CC2)cn1 [Example 69, trans-N-(4-{2-[4-(2,3-Dihydro-furo[2,3-c]pyridin-7-yl)-piperazin-1-yl]-ethyl}-cyclohexyl)-6-methyl-nicotinamide] |
| 7.34 | 220.5 | 6.25 | 7.74 | O=C(N[C@H]1CC[C@H](CCN2CCN(c3nccc4c3OCC4)CC2)CC1)c1ccc(-c2ccccc2)cc1 [Example 70, Biphenyl-4-carboxylic acid trans-(4-{2-[4-(2,3-dihydro-furo[2,3-c]pyridin-7-yl)-piperazin-1-yl]-ethyl}-cyclohexyl)-amide] |
| 7.72 | 235 | 6.57 | 8.12 | O=C(N[C@H]1CC[C@H](CCN2CCN(c3nccc4c3OCC4)CC2)CC1)c1ccc(-c2cccnc2)cc1 [Example 71, trans-N-(4-{2-[4-(2,3-Dihydro-furo[2,3-c]pyridin-7-yl)-piperazin-1-yl]-ethyl}-cyclohexyl)-4-pyridin-3-yl-benzamide] |
| 7.61 | 262.5 | 6.20 | 7.75 | N#Cc1ccc(C(=O)N[C@H]2CC[C@H](CCN3CCN(c4nccc5c4OCC5)CC3)CC2)cc1 [Example 72, trans-4-Cyano-N-(4-{2-[4-(2,3-dihydro-furo[2,3-c]pyridin-7-yl)-piperazin-1-yl]-ethyl}-cyclohexyl)-benzamide] |
| 7.65 | 231 | 6.32 | 7.82 | O=C(N[C@H]1CC[C@H](CCN2CCN(c3nccc4c3OCC4)CC2)CC1)c1ccc(N2CCOCC2)nc1 [Example 73, trans-N-(4-{2-[4-(2,3-Dihydro-furo[2,3-c]pyridin-7-yl)-piperazin-1-yl]-ethyl}-cyclohexyl)-6-morpholin-4-yl-nicotinamide] |
| 7.64 | 260.5 | 6.84 | 8.02 | O=C(N[C@H]1CC[C@H](CCN2CCN(c3nccc4c3OCC4)CC2)CC1)c1ccc(N2CCS(=O)(=O)CC2)cc1 [Example 74, trans-N-(4-{2-[4-(2,3-Dihydro-furo[2,3-c]pyridin-7-yl)-piperazin-1-yl]-ethyl}-cyclohexyl)-4-(1,1-dioxo-1λ6-thiomorpholin-4-yl)-benzamide] |
| 7.34 | 211 | 6.20 | 8.20 | O=C(Cc1noc2ccccc12)N[C@H]1CC[C@H](CCN2CCN(c3nccc4c3OCC4)CC2)CC1 [Example 75, trans-2-Benzo[d]isoxazol-3-yl-N-(4-{2-[4-(2,3-dihydro-furo[2,3-c]pyridin-7-yl)-piperazin-1-yl]-ethyl}-cyclohexyl)-acetamide] |
| 7.45 | 211.5 | 6.36 | 8.03 | O=C(N[C@H]1CC[C@H](CCN2CCN(c3nccc4c3OCC4)CC2)CC1)c1ccc2ncccc2c1 [Example 77, Quinoline-6-carboxylic acid trans-(4-{2-[4-(2,3-dihydro-furo[2,3-c]pyridin-7-yl)-piperazin-1-yl]-ethyl}-cyclohexyl)-amide] |
| 7.53 | 200.5 | 6.17 | 7.37 | O=C(N[C@H]1CC[C@H](CCN2CCN(c3nccc4c3OCC4)CC2)CC1)c1cnc(N2CCOCC2)cn1 [Example 78, 5-Morpholin-4-yl-pyrazine-2-carboxylic acid trans-(4-{2-[4-(2,3-dihydro-furo[2,3-c]pyridin-7-yl)-piperazin-1-yl]-ethyl}-cyclohexyl)-amide] |
| 7.80 | 250 | 6.21 | 7.43 | O=C(N[C@H]1CC[C@H](CCN2CCN(c3nccc4c3OCC4)CC2)CC1)C1(O)CCC1 [Example 79, 1-Hydroxy-cyclobutanecarboxylic acid trans-(4-{2-[4-(2,3-dihydro-furo[2,3-c]pyridin-7-yl)-piperazin-1-yl]-ethyl}-cyclohexyl)-amide] |
| 7.72 | 212 | 6.44 | 7.91 | CS(=O)(=O)c1ccc(C(=O)N[C@H]2CC[C@H](CCN3CCN(c4nccc5c4OCC5)CC3)CC2)s1 [Example 81, 5-Methanesulfonyl-thiophene-2-carboxylic acid trans-(4-{2-[4-(2,3-dihydro-furo[2,3-c]pyridin-7-yl)-piperazin-1-yl]-ethyl}-cyclohexyl)-amide] |
| 7.22 | 227 | 6.21 | 8.00 | O=C(N[C@H]1CC[C@H](CCN2CCN(c3nccc4c3OCC4)CC2)CC1)C1CC1(F)F (stereo partly drawn) [Example 85, 2,2-Difluoro-cyclopropanecarboxylic acid trans-(4-{2-[4-(2,3-dihydro-furo[2,3-c]pyridin-7-yl)-piperazin-1-yl]-ethyl}-cyclohexyl)-amide] |
| 7.41 | 176 | 6.36 | 8.13 | CC#CC(=O)N[C@H]1CC[C@H](CCN2CCN(c3nccc4c3OCC4)CC2)CC1 [Example 86, But-2-ynoic acid trans-(4-{2-[4-(2,3-dihydro-furo[2,3-c]pyridin-7-yl)-piperazin-1-yl]-ethyl}-cyclohexyl)-amide] |
| 7.13 | 170 | 6.03 | 8.18 | C/C=C/CC(=O)N[C@H]1CC[C@H](CCN2CCN(c3nccc4c3OCC4)CC2)CC1 [Example 87, (E)-Pent-3-enoic acid trans-(4-{2-[4-(2,3-dihydro-furo[2,3-c]pyridin-7-yl)-piperazin-1-yl]-ethyl}-cyclohexyl)-amide] |
| 7.23 | 183.5 | 6.70 | 8.03 | CC(C)=CC(=O)N[C@H]1CC[C@H](CCN2CCN(c3nccc4c3OCC4)CC2)CC1 [Example 88, 3-Methyl-but-2-enoic acid trans-(4-{2-[4-(2,3-dihydro-furo[2,3-c]pyridin-7-yl)-piperazin-1-yl]-ethyl}-cyclohexyl)-amide] |
| 7.23 | 193 | 6.36 | 7.82 | CC(C)(C)CC(=O)N[C@H]1CC[C@H](CCN2CCN(c3nccc4c3OCC4)CC2)CC1 [Example 89, trans-N-(4-{2-[4-(2,3-Dihydro-furo[2,3-c]pyridin-7-yl)-piperazin-1-yl]-ethyl}-cyclohexyl)-3,3-dimethyl-butyramide] |
| 7.31 | 194.5 | 6.17 | 7.30 | CC(C)(C)C(=O)N[C@H]1CC[C@H](CCN2CCN(c3nccc4c3OCC4)CC2)CC1 [Example 90, trans-N-(4-{2-[4-(2,3-Dihydro-furo[2,3-c]pyridin-7-yl)-piperazin-1-yl]-ethyl}-cyclohexyl)-2,2-dimethyl-propionamide] |
| 7.49 | 172.5 | 6.32 | 7.73 | C[C@]1(O)CC[C@H](C(=O)N[C@H]2CC[C@H](CCN3CCN(c4nccc5c4OCC5)CC3)CC2)CC1 [Example 91, trans-4-Hydroxy-4-methyl-cyclohexanecarboxylic acid trans-(4-{2-[4-(2,3-dihydro-furo[2,3-c]pyridin-7-yl)-piperazin-1-yl]-ethyl}-cyclohexyl)-amide] |

| Compound | pKi (human 5-HT2A receptor) | melting point [°C] | pKi (human D2 receptor) | pKi (human D3 receptor) |
| --- | --- | --- | --- | --- |
| CC(C)(C)Oc1ccc(C(=O)N[C@H]2CC[C@H](CCN3CCN(c4nccc5c4OCC5)CC3)CC2)cc1 [Example 76, trans-4-tert-Butoxy-N-(4-{2-[4-(2,3-dihydro-furo[2,3-c]pyridin-7-yl)-piperazin-1-yl]-ethyl}-cyclohexyl)-benzamide] | 7.35 | 168.5 | 6.09 | 7.48 |
| O=C(CCC(F)(F)F)N[C@H]1CC[C@H](CCN2CCN(c3nccc4c3OCC4)CC2)CC1 [Example 84, trans-N-(4-{2-[4-(2,3-Dihydro-furo[2,3-c]pyridin-7-yl)-piperazin-1-yl]-ethyl}-cyclohexyl)-4,4,4-trifluoro-butyramide] | 6.95 | 204.5 | 5.85 | 7.85 |

— US8470828B2, “Anellated pyridine compounds” (Hoffmann-La Roche Inc., priority 2010, dated 2013)
